Data on one molecule can be found in US12539306B2, “Mucoadhesive pharmaceutical compositions of corticosteroids” (Ferring B.V., priority 2018, dated 2026).

What is called solubility is the concentration that dissolves in the medium under given conditions.

A short description of this series: Solubility of budesonide at room temperature. The class given is physicochemical. The method, then: The solubility at room temperature of budesonide in water was determined to be about. 0.01 mg/ml, about 1 mg/ml in glycerin and about 10 mg/ml in propylene glycol at room temperature.

Converted amounts (≈) assume the structure as drawn. Like-named read-outs stand apart in the source and are kept apart here.

For `CCCC1O[C@@H]2C[C@H]3[C@@H]4CCC5=CC(=O)C=C[C@]5(C)[C@H]4[C@@H](O)C[C@]3(C)[C@]2(C(=O)CO)O1` (stereo partly drawn) [budesonide, 16,17-butylidenebis(oxy)-11,21-dihydroxy-, (11β, 16α)-pregna-1,4-diene-3,20-dione], the solubility by setting is: (organic solvent or mixture, glycerin, read-out: solubility in glycerin) approximately 1000 µg/mL (≈ 2320 µM); (organic solvent or mixture, propylene glycol, read-out: solubility in propylene glycol) approximately 10000 µg/mL (≈ 23200 µM); (water, read-out: solubility in water) approximately 10 µg/mL (≈ 23.2 µM).
